The text below walks through data of PubChem BioAssay AID1241 (SRMLSC, 2008).

Usually EC50 stands for the midpoint of the concentration-response curve.

This assay can be described thus: compounds inducing NF-kB luciferase expression – cell-based, SH-SY5Y, dose response (AID 1241). To be noted: SH-SY5Y NF-kB promoter luciferase reporter, fold induction.
As to `NC(=O)c1ccccc1N/C=C/C(=O)c1ccc(Cl)cc1Cl`, the EC50 was 1.25 µM.

For the compound `N#C/C(=N\Nc1ccccc1[N+](=O)[O-])C(=N)N1CCCCC1`, the half-maximal effective concentration (EC50) was 6.94 µM.

For the compound `CC(C)N=C1NN=C(c2ccc(Cl)c(Cl)c2)CS1`, the EC50 was 1.43 µM. Turning to `COc1ccc(/C=C/c2nc3ccccc3n2Cc2ccccc2OC)cc1`, the EC50 is 4.98 µM. As to `CCCCNc1ncnc2c1cnn2-c1ccc(Cl)cc1`, the EC50 was 7.76 µM.

Consider `CC(C)Oc1cc(O)c2c(=O)c(-c3ccc(O)cc3)coc2c1`, for which the half-maximal effective concentration (EC50) was 4.52 µM.

For `COc1ccc(Cn2c(/C=C/c3ccccc3)nc3ccccc32)cc1`, the EC50 is 4.87 µM. The figure for `CNc1nc(-c2ccc3c(c2)CCN3C(=O)c2ccccc2F)cs1` is 2.66 µM. Regarding `Cc1ccc(-c2noc(-c3cccs3)n2)cc1`, the EC50 is 2.29 µM.

As for `O=C(c1cc(-c2cccc(O)c2)on1)N1CCCCC1`, the EC50 was 5.51 µM. The figure for `Cc1occc1C(=O)Nc1ccc2ccccc2c1` is 3.7 µM; for `CC(C)Oc1cccc(C(=O)Nc2ccc(Br)cc2F)c1` it is 2.46 µM.

As for `Cc1ccc(C(=O)Nc2ccc3c(c2)CCC3)cc1`, the half-maximal effective concentration (EC50) is 0.158 µM. As for `O=C(/C=C/c1ccccc1[N+](=O)[O-])Nc1ccccc1`, the EC50 is 10.4 µM. Regarding `Cn1cccc1/C=C1\CCc2ccccc2C1=O`, the EC50 is 1.63 µM.

With `c1ccc(COc2ccc(OCCCn3cncn3)cc2)cc1`, the EC50 was 19.8 µM. For `CSc1ccccc1-c1nnc(-c2ccccc2)o1`, the EC50 was 3.7 µM. The figure for `Cc1ccsc1/C=C1\CCC(C2CCCC2)C1=O` (configuration not stated) is 5.84 µM; for `COc1cccc([C@@H]2Oc3ccc(OC)cc3C(=O)[C@H]2O)c1` it is 5.86 µM; for `Cc1ccc2oc(-c3cccc(N)c3)nc2c1` it is 0.66 µM. The figure for `CSCCNC(=O)c1ccc(C(C)(C)C)cc1` is 5.25 µM; for `Nc1nn(-c2cccc(F)n2)cc1-c1ccc(Cl)cc1` it is 0.675 µM; for `Cc1ccc(OCC(=O)Nc2ccccc2[N+](=O)[O-])c(Br)c1` it is 9.49 µM. Take `O=C(Nc1ccccn1)c1ccc2ccccc2n1`: the concentration giving a half-maximal response (EC50) is 17.2 µM. Take `COc1cccc(-c2nc(-c3ccccc3)no2)c1`: the concentration giving a half-maximal response (EC50) is 1.49 µM.

Regarding `COc1cc(SC)ccc1C(=O)Nc1ccc2c(c1)OCO2`, the concentration for a half-maximal effect (EC50) is 1.29 µM. Regarding `CCCC(=O)Nc1ccc(C(=O)N/N=C/c2ccc[nH]2)cc1`, the EC50 was 2.99 µM. The figure for `Nc1ccc2nc(-c3ccc(Cl)cc3)[nH]c2c1` is 9.96 µM; for `Clc1c(CSc2nc3ccccc3o2)nc2ccccn12` it is 1.96 µM. In the case of `O=C(CCCc1ccccc1)N1CCc2ccccc21`, the EC50 was 2.57 µM. The figure for `Oc1sc(C=Nc2ccccc2)c2ccccc12` is 10.5 µM; for `O=C(Cc1nc(=O)c2ccccc2s1)Nc1ccccc1` it is 0.22 µM; for `CCOc1ccc2cc(C#N)c(SCC(=O)OC)nc2c1` it is 14.5 µM. Regarding `CC(C(=O)O)c1ccc(N2Cc3ccccc3C2=O)cc1` (configuration not stated), the concentration for a half-maximal effect (EC50) was 1.52 µM. With `CCOC(=O)c1sc(=NC(=O)c2cccs2)n(C)c1C`, the concentration for a half-maximal effect (EC50) was 0.778 µM. Consider `Cc1ccc(NC(=O)c2ccn(C)n2)c(Br)c1`, for which the EC50 is 8.25 µM. The figure for `COC(=O)c1ccc(/C=C(\C#N)c2ccccn2)cc1` is 25.1 µM; for `Fc1ccccc1Nc1nc2c(s1)CCc1ccccc1-2` it is 3.36 µM. Take `O=C(Nc1ccc2c(c1)OCCO2)c1ccc2ccccc2n1`: the concentration for a half-maximal effect (EC50) is 1.44 µM.

As for `Cc1ccc(/C=N/Nc2nc3ccccc3s2)o1`, the EC50 was 0.79 µM. The figure for `Oc1ccc(N=Nc2n[nH]c(-c3ccccc3)n2)cc1` is 3.99 µM.

Regarding `CCc1ccc(C(=O)/C=C/c2cnn(C)c2C)s1`, the EC50 was 7.9 µM.

Take `Cc1ccc(NC(=S)N2CCC(c3ccccc3)C2)c(Cl)c1` (configuration not stated): the EC50 is 1.79 µM.

For the compound `CCNc1nc(N)nc(-c2cc(Cl)ccc2O)n1`, the concentration giving a half-maximal response (EC50) is 0.847 µM. In the case of `Oc1ccc(CN2CCN(Cc3ccccc3)CC2)c2cccnc12`, the EC50 is 5.24 µM. On to `Cc1ccc2sc(-c3ccc(NC(=O)/C=C\C(=O)O)cc3)nc2c1`, for which the concentration giving a half-maximal response (EC50) was 4.83 µM. For the compound `CCC(=O)Nc1nc(-c2ccc3c(c2)OCCO3)cs1`, the half-maximal effective concentration (EC50) was 4.54 µM.

On to `Cc1cc(C(=O)Nc2nc3c(s2)CCCC3)cs1`, for which the EC50 is 1.63 µM.

As for `O=C(Nc1ccc(F)cc1)/C(Cl)=C/c1ccccc1`, the EC50 is 23.4 µM.

Take `O=C(Nc1ccc2c(c1)CCC2)c1ccc(Br)s1`: the concentration for a half-maximal effect (EC50) was 0.772 µM. For `CCCCCc1ccc(-c2ccc(C(=O)O)cc2)nc1`, the EC50 was 1.41 µM.

In the case of `CCOc1cc(/C=N/Nc2cccc(C(=O)O)c2)ccc1OC(=O)c1ccccc1`, the concentration giving a half-maximal response (EC50) was 4 µM. For the compound `CC1=NC(=O)C(N=Nc2cccc(C(=O)O)c2)N1c1ccccc1` (configuration not stated), the EC50 is 0.781 µM.

For `S=C(Nc1ccccn1)c1ccccn1`, the EC50 is 2.03 µM. The figure for `O=C(NC(=S)Nc1ccc2c(c1)OCO2)c1ccccc1` is 5.7 µM.

In the case of `O=C(O)c1ccc(N/N=C/c2cn(-c3ccccc3)nc2-c2cccs2)cc1`, the EC50 was 1.7 µM. Turning to `Cc1ccc(/C=C/C(=O)NC2=NCCS2)cc1`, the half-maximal effective concentration (EC50) was 4.32 µM. As to `Cc1occc1C(=O)Nc1cccc2ccccc12`, the 50% effective concentration (EC50) is 4.62 µM. As for `COc1cc(/C=N/O)ccc1OCc1ccc([N+](=O)[O-])cc1`, the concentration for a half-maximal effect (EC50) was 1.69 µM.

In the case of `CCCc1cc(C(=O)Nc2nccs2)cs1`, the EC50 was 2.62 µM. With `COc1cc(/C=C(/C(=O)c2cccs2)c2nc3ccccc3[nH]2)cc(OC)c1O`, the EC50 was 7.67 µM. Regarding `Cc1ccc2nc(-c3ccc(NS(=O)(=O)c4ccc(F)c(F)c4)cc3)sc2c1`, the concentration giving a half-maximal response (EC50) is 3.62 µM. Turning to `COc1ccc(Nc2nc(-c3ccccc3)cs2)cc1`, the concentration giving a half-maximal response (EC50) was 0.752 µM. Regarding `COc1ccc(-c2coc3cc(OC)cc(O)c3c2=O)cc1`, the EC50 is 1.73 µM.

As for `CC(C)c1cc(C(=O)Nc2cccc(Cl)c2)no1`, the 50% effective concentration (EC50) was 2.42 µM. Consider `Cc1ccn2cc(-c3cc4ccccc4oc3=O)nc2c1`, for which the EC50 was 0.137 µM. Turning to `COC(=O)c1ccc(-c2ccc(Cl)cc2)nc1C`, the 50% effective concentration (EC50) was 4.44 µM. For the compound `COc1ccc(/C=C2\SC(=O)N(CCNC(=O)C3CC4C=CC3C4)C2=O)cc1` (configuration not stated), the EC50 was 4.14 µM.

Take `O=C(Nc1ccc2c(c1)OCO2)c1ccc2c(c1)OCO2`: the EC50 was 1.23 µM.

In the case of `COc1c(C)cccc1C(=O)Nc1ccc(N2CCOCC2)c(Cl)c1`, the concentration giving a half-maximal response (EC50) was 13.4 µM. On to `Cc1ccc(C(=O)c2sc3nsc(C)c3c2N)cc1`, for which the EC50 was 2 µM. For `Cc1ccc(NC(=O)/C(Cl)=C/c2ccccc2)cc1C`, the EC50 is 2.96 µM.

In the case of `Clc1ccc(-c2cn3c(n2)-c2ccccc2C3)cc1Cl`, the EC50 was 0.861 µM. Consider `O=C(Nc1ncc(Cc2ccccc2)s1)c1cccs1`, for which the EC50 is 1.08 µM.

As for `O=C(NC1=NCCS1)c1sc2ccccc2c1Cl`, the half-maximal effective concentration (EC50) was 5.76 µM. Consider `Brc1ccc(-c2ncc(-c3ccccc3)cn2)cc1`, for which the EC50 was 3.87 µM. For the compound `CCOC(=O)N/C(N)=N/c1nc2ccccc2s1`, the EC50 is 9.45 µM.

Take `CN(C)c1ccc(C(=O)/C=C/c2ccco2)cc1`: the half-maximal effective concentration (EC50) was 1.96 µM. The figure for `Cc1cc(C(=O)Nc2cccc(C(=O)O)c2)oc1C` is 29.8 µM; for `O=C(Nc1ccc(Cl)cc1)N1CCC(c2ccccc2)C1` (configuration not stated) it is 10.6 µM. As to `O=C(/C=C/c1ccco1)N1CCc2ccccc21`, the EC50 is 1.04 µM. The figure for `O=C(Nc1ccn(Cc2ccccc2)n1)c1cccc(F)c1` is 15.1 µM.
